Where two headings read alike, the source gives them in different places.
Tests used:
[1] = test system: Rice; test: Whole Plant Screen (2), rice; type: in vivo, Rice (Ishikari); conditions: RC, 4000 ppm, side-by-side, Table XIII
Summary of the method: (§1)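 Foliar spray at 4000 ppm (4 kg/ha in 1000 l/ha) by tracksprayer at the listed leaf stage. Plants grown in glasshouse at 25° C. day/22° C. night, 16° C./13° C. for wheat, 16 h photoperiod. Morphology visually assessed after 2-6 weeks against formulation blanks.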

[2] = test system: Rice; test: Intermediate Retardant Test, rice; type: in vivo, Rice (Ishikari); conditions: Oryza sativa, 672 h, ~28 days, read-out: Percentage Reduction in Height of Rice (Compared to formulation blank)
Summary of the method: (§2)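 Percentage height reduction relative to the formulation blank, assessed about 28 days post-treatment as height to top-most ligule (rice, spring barley) or to apex (apples). Compounds sprayed overall at 1000 and 4000 ppm (1 and 4 kg ha^-1 in 1000 l/ha), covering root and foliar uptake; rice grown immersed in paddy pots.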

[3] = test system: Cynosurus cristatus; conditions: CC, 4000 ppm, 2-3 weeks
[4] = test system: Spring Barley; test: Intermediate Retardant Test, spring barley; type: in vivo, Spring Barley (Atem/kym); conditions: Hordeum vulgare, 672 h, ~28 days, read-out: Percentage Reduction in Height of Spring Barley (Compared to formulation blank)
Summary of the method: as §2

[5] = test system: Apples; test: Intermediate Retardant Test, apples; type: in vivo, Apples (Red Delicious); conditions: 672 h, ~28 days, read-out: Percentage Reduction in Height of Apples (Compared to formulation blank)
Summary of the method: as §2

[6] = test system: Tomato; conditions: TO, 4000 ppm, 2-3 weeks
[7] = test system: Dacrylis glomerata; conditions: DA, 4000 ppm, 2-3 weeks
[8] = test system: Barley; test: Whole Plant Screen (2), barley; type: in vivo, Barley (Atem); conditions: BR, 4000 ppm, side-by-side, Table XIII
[9] = test system: Barley; conditions: BR, 4000 ppm, 2-3 weeks
Method: (§3) The compounds were tested for plant growth regulator activity against up to tweleve plant species for various growth effects relevant to plant growth regulation.
(§4) Each chemical was applied at 4000 ppm (4 kg/ha in a 1000 l/ha field volume) using a tracksprayer and a SS8004E (Teejet) nozzle.
(§5) After spray, the plants were grown in a glasshouse with 25° C. day/22° C. night temperatures and supplementary lighting was supplied when necessary (from mercury vapour lamps), to provide a 16 hour photoperiod. The exception to this were the temperate cereals, wheat and barley, which were grown in 16° C. day 13° C. night temperatures
(§6) After 2-3 weeks in the glasshouse, depending on the time of year, the plants were visually assessed for morphological characteristics. Formulations blanks were used as controls to assess the Plants.

[10] = test system: Soya; conditions: SY, 4000 ppm, 2-3 weeks
Method: as §3, §4, §5, §6

[11] = test system: Wheat; test: Whole Plant Screen (2), wheat; type: in vivo, Wheat (Timmo); conditions: WW, 4000 ppm, side-by-side, Table XIII
Summary of the method: as §1

[12] = test system: plant species of Whole Plant Screen (1) or (2); test: Across screen comparison: total retardation relative to paclobutrazol (Whole Plant Screens (1) and (2)); type: in vivo; conditions: compounds of Table I, Table X
Summary of the method: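 Compounds, each tested in Whole Plant Screen (1) or (2), are compared by summing retardation scores over all species tested. Each total is expressed as a percentage of the total retardation from paclobutrazol, the standard run in every test.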

[13] = test system: Agrostis tenius; conditions: AT, 4000 ppm, 2-3 weeks

`CCCCC#CC(O)(Cn1cncn1)C(C)(C)C` (stereo not shown) [Compound 1, 2,2-dimethyl-3-hydroxy-3-(hex-1-yne-1-yl)-4-(1,2,4-triazol-1-yl)-butane] was tested, and the “G = Greening effect” value [1] was 2 (31-60%), the “I = Interligular or internodal length reduction” value [1] was 3 (61-100%) and the “R = Retardation” value [1] was 2 (31-60%). The “T = Tillering or side shooting” value [1] was 3 (61-100%), the Percent reduction in rice plant height vs formulation blank at 1000 ppm ([2]; Table VII) was 24.6% and the Percent reduction in rice plant height vs formulation blank at 1000 ppm ([2]; side-by-side, Table XVI) was 31%. The Percent reduction in rice plant height vs formulation blank at 4000 ppm ([2]; Table VII) was 49.9%, the Percent reduction in rice plant height vs formulation blank at 4000 ppm ([2]; side-by-side, Table XVI) was 53% and the “Retardation score (1-3) with greening (G), apical damage (A), tillering/side shooting (T)” value (“Retardation score … tillering/side shooting (T)” below) [3] was 2G. It also gave a height reduction vs blank at 1000 ppm ([4]; Table VIII) of 32.3%, a height reduction vs blank at 1000 ppm ([4]; side-by-side, Table XV) of 28% and a height reduction vs blank at 4000 ppm ([4]; Table VIII) of 60.7%. It also gave a height reduction vs blank at 4000 ppm ([4]; side-by-side, Table XV) of 62%, a percent reduction in plant height vs formulation blank at 1000 ppm ([5]; side-by-side, Table XVII) of 0% and a percent reduction in plant height vs formulation blank at 4000 ppm ([5]; Table IX) of 51.6%. The percent reduction in plant height vs formulation blank at 4000 ppm ([5]; side-by-side, Table XVII) was 41%, the “Retardation score … tillering/side shooting (T)” value [6] was 2G and the “Retardation score … tillering/side shooting (T)” value [7] was 2G. For the same molecule, the “G = Greening effect” value [8] was 1 (10-30%), the “T = Tillering or side shooting” value [8] was 1 (10-30%) and the “Retardation score … tillering/side shooting (T)” value [9] was 3T. The “Retardation score … tillering/side shooting (T)” value [10] was 1G, the “T = Tillering or side shooting” value [11] was 1 (10-30%) and the “Total Retardation expressed as a percentage of the total retardation caused by paclobutrazol” value [12] was 84.0 % of paclobutrazol. The “Retardation score … tillering/side shooting (T)” value [13] was 3G.
For `CC(C)CC#CC(O)(Cn1cncn1)C(C)(C)C` (stereo not shown) [Compound 7, 2,2-dimethyl-3-hydroxy-3-(4-methyl-pent-1-yne-1-yl)-4-(1,2,4-triazol-1-yl)-butane], the “G = Greening effect” value [1] was 1 (10-30%), the “I = Interligular or internodal length reduction” value [1] was 3 (61-100%) and the “R = Retardation” value [1] was 2 (31-60%). For the same molecule, the “T = Tillering or side shooting” value [1] was 3 (61-100%), the Percent reduction in rice plant height vs formulation blank at 1000 ppm ([2]; Table VII) was 11.1% and the Percent reduction in rice plant height vs formulation blank at 1000 ppm ([2]; side-by-side, Table XVI) was 27%. The Percent reduction in rice plant height vs formulation blank at 4000 ppm ([2]; Table VII) was 26%, the Percent reduction in rice plant height vs formulation blank at 4000 ppm ([2]; side-by-side, Table XVI) was 53% and the “Retardation score … tillering/side shooting (T)” value [3] was 2G. The height reduction vs blank at 1000 ppm ([4]; Table VIII) was 33%, the height reduction vs blank at 1000 ppm ([4]; side-by-side, Table XV) was 20% and the height reduction vs blank at 4000 ppm ([4]; Table VIII) was 75.4%. For the same molecule, the height reduction vs blank at 4000 ppm ([4]; side-by-side, Table XV) was 51%, the percent reduction in plant height vs formulation blank at 1000 ppm ([5]; Table IX) was 15% and the percent reduction in plant height vs formulation blank at 1000 ppm ([5]; side-by-side, Table XVII) was 30%. The percent reduction in plant height vs formulation blank at 4000 ppm ([5]; Table IX) was 31%, the percent reduction in plant height vs formulation blank at 4000 ppm ([5]; side-by-side, Table XVII) was 60% and the “Retardation score … tillering/side shooting (T)” value [6] was 2GT. For the same molecule, the “Retardation score … tillering/side shooting (T)” value [7] was 1G, the “G = Greening effect” value [8] was 1 (10-30%) and the “I = Interligular or internodal length reduction” value [8] was 3 (61-100%). The “Retardation score … tillering/side shooting (T)” value [9] was 2GT, the “Retardation score … tillering/side shooting (T)” value [10] was 3GAT and the “G = Greening effect” value [11] was 1 (10-30%). For the same molecule, the “T = Tillering or side shooting” value [11] was 1 (10-30%), the “Total Retardation expressed as a percentage of the total retardation caused by paclobutrazol” value [12] was 58.6 % of paclobutrazol and the “Retardation score … tillering/side shooting (T)” value [13] was 2G.

Source: US4895589A, “Heterocyclic compounds” (Imperial Chemical Industries PLC, priority 1985, dated 1990)
